This is an account of results in patent US6034066A, “Cysteine protease inhibitors for use in treatment of IGE mediated allergic diseases” (Peptide Therapeutics Limited, priority 1995, dated 2000).

Some results are limits rather than exact numbers.

The first test addresses T1, Der p I (Dermatophagoides pteronyssinus, UniProt P08176).
T1 construct: tissue SmithKline-Beecham (crude mite extract); host or cells: house dust mite extract, purified on immobilised anti-Der p I antibody 4C1
T1 sequence (P08176 99-320): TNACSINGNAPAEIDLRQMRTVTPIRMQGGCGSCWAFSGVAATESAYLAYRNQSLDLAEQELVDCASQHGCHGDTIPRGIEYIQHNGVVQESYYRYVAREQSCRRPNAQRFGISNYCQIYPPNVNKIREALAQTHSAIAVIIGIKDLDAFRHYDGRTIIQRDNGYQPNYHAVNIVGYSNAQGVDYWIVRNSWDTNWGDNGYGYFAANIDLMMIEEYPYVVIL
Description: Inhibition (inactivation) kinetics of Der p I, fluorogenic substrate assay. Type of test: biochemical. The conditions noted are these: second order inactivation rate constant; 50 mM potassium phosphate pH 8.25, 1 mM EDTA, 1 mM DTT, 25° C.; purified Der p I. Here is the method: All Der-p I enzyme assays were routinely carried out in 50 mM potassium phosphate; pH 8.25 containing 1 mM ethylenediaminetetraaceticacid (EDTA) and 1 mM dithiothreitol (DTT). Product formation was monitored with respect to time by measuring the increase in fluorescence emission at 420 nm and exciting at 320 nm. All assays were carried out at 25° C. Stock solutions of the various substrates and/or inhibitors were made up in 100% dimethylsulphoxide (DMSO).
The reaction of enzyme and inhibitor is comprised of two steps. The first is binding of enzyme and inhibitor to produce the enzyme inhibitor complex (E.I). This step is assumed to be rapid and reversible, relative to the other steps, and no chemical reaction occurs. In this case k1 is the second order rate constant for the formation of the E.I complex and k-1 is the first order rate constant for the breakdown of the E.I. The second step in the process, occurring at a rate k2, is the formation of the enzyme-inhibitor covalent complex (EI) resulting in irreversible inactivation of the enzyme.
The practice of inactivation kinetics of enzymes have been described by two standard accepted methods (Schemes 1 and 2). The first (Scheme 1) is the dilution method described by Kitz, C. G. and Wilson, I. B., (1962), J. Biol. Chem., 237, 3245-3249. In this case enzyme and inhibitor are pre-incubated for a set period of time prior to quenching of this reaction by the addition of an excess of substrate. The second method (Scheme 2), is monitoring enzyme inactivation in the presence of substrate and irreversible inhibitors. This method has been described previously (Tian, W. -X. & Tsou, C. -L, (1982), Biochemistry, 21, 1028-1032; Morrison, J. F. & Walsh, C. T., (1988), Adv. Enzymol. Relat. Areas Mol. Biol., 61, 201-301) and the equations describing the kinetics are shown below (Eq. 1, 2 and 3). In both cases the inhibitor concentration employed is at least 10 times greater than the enzyme concentration in order to maintain pseudo-first order conditions.
kapp =k2 [I]/1+[S]/KM [I]+K1) Eq. 1
[Product]=vs t+(v0 -v5)[1-exp(-kapp t)]/kapp +dEq.
second order rate constant=(kapp /[I])(1+[S]/KM) Eq. 3
The apparent inactivation rate constant (kapp) was calculated using Eq. 2; where vo is the initial velocity of the reaction, vs is asymptotic steady-state velocity of the reaction, d is the intercept at time zero. The second order rate was calculated using Eq. 3.
Assays were routinely carried out in 50 mM potassium phosphate; pH 8.25 containing 1 mM ethylenediaminetetraaceticacid (EDTA) and 1 mM dithiothreitol (DTT). The fluorogenic substrate was 2-aminobenzoylvalylalanylnorleucylseryl-(3-nitro)tyrosinyl aspartylamide. Product formation was monitored with respect to time by measuring the increase in fluorescence emission at 420 nm and exciting at 320 nm. Assays were carried out at 25° C. Stock solutions of the various inhibitors were made up in 100% dimethylsulphoxide.
Inactivation kinetics for various inhibitors were carried out using the techniques already described. In the dilution method, generally 100 nM Der p I was mixed and incubated with 0.5-10 uM of the inhibitor and aliquots were taken out at given time points (sampling time) and the residual enzyme activity determined by a ten-fold dilution into assay buffer containing saturating amounts of substrate. The residual activity was related to the sampling time and the curve fitted by computational non-linear least square regression analysis. In cases where the second order rate constants were greater than 10^5 M^-1 s^-1, second order conditions were employed (i.e. equimolar amounts of enzyme and inhibitor). Generally stoichiometric amounts of enzyme and inhibitor were incubated for given time intervals (sampling time) and the reaction stopped by a ten-fold dilution of this mixture by saturating amounts of substrate in assay buffer. […]
“N-Benzoyl-L-valyl-L-alanyl-L-norleucine 1,1-dimethylpropyloxymethyl ketone [Compound 9]”: the “kobs /[I]” value is on record as 2.3 × 10^4 M^- s^-1.
On to `CCOS(=O)(=O)/C=C/[C@H](CC(C)C)NC(=O)[C@H](C)NC(=O)[C@@H](NC(=O)OC(C)(C)C)C(C)C` [Compound 40, Ethyl(S)-(E)-3-((tert-butoxycarbonylamino-L-valyl)-L-alanyl)amino-5-methylhexenylsulfonate], for which the “kobs /[I]” value is reported as 6.9 × 10^4 M^- s^-1.
`CCCC[C@H](NC(=O)[C@H](C)NC(=O)[C@@H](NC(=O)c1ccccc1)C(C)C)C(=O)NOC(=O)c1ccccc1` [Compound 15, N-(Benzoyl amino-L-valyl-L-alanyl-L-norleucyl)-O-benzoyl hydroxamate]: the “kobs /[I]” value is given as 1.5 × 10^5 M^- s^-1.
In the case of `CCOC(=O)/C=C/[C@H](CC(C)C)NC(=O)[C@H](C)NC(=O)[C@@H](NC(=O)c1ccccc1)C(C)C` [Compound 26], the “kobs /[I]” value is 4.1 × 10^3 M^- s^-1.
For `CCCC[C@H](NC(=O)[C@H](C)NC(=O)[C@@H](NC(=O)c1ccccc1)C(C)C)C(=O)COC(=O)c1c(C)cccc1C` [Compound 4, N-Benzoyl-L-valyl-L-alanyl-L-norleucine 2,6-dimethyl benzoyloxy methyl ketone], the “kobs /[I]” value is given as 1.6 × 10^7 M^- s^-1.
Take `CCCC[C@H](NC(=O)[C@H](C)NC(=O)[C@@H](NC(=O)c1ccccc1)C(C)C)C(=O)COC(=O)[C@@H](COC(C)(C)C)NC(=O)OCc1ccccc1` [Compound 10, N-Benzoyl-L-valyl-L-alanyl-L-norleucine N-(-benzyloxycarbonyl)-D-serinyl-(O-tert-butyl)oxymethyl ketone]: the “kobs /[I]” value is 1.9 × 10^5 M^- s^-1.
For the compound `CCOC(=O)/C=C/[C@H](CC(C)C)NC(=O)[C@H](C)NC(=O)[C@@H](NC(=O)c1ccccc1C(F)(F)F)C(C)C` [Compound 27], the “kobs /[I]” value is on record as 6.3 × 10^3 M^- s^-1.
On to `CCCC[C@H](NC(=O)[C@H](C)NC(=O)[C@@H](NC(=O)c1ccccc1)C(C)C)C(=O)COC(=O)c1c(Cl)cccc1Cl` [Compound 13, N-Benzoyl-L-valyl-L-alanyl-L-norleucine 2,6-dichlorophenylacyloxy methyl ketone], for which the “kobs /[I]” value is listed as 6.6 × 10^5 M^- s^-1.
For the compound `CCCC[C@H](NC(=O)[C@H](C)NC(=O)[C@@H](NC(=O)c1ccccc1)C(C)C)C(=O)COC(=O)c1c(C(F)(F)F)cccc1C(F)(F)F` [Compound 3, N-Benzoyl-L-valyl-L-alanyl-L-norleucine 2,6-bis (trifluoromethyl)benzoyloxymethyl ketone], the “kobs /[I]” value is listed as > 10^7 M^- s^-1.
On the same count and under the same terms, with `CCCC[C@H](NC(=O)[C@H](C)NC(=O)[C@@H](NC(=O)c1ccccc1)C(C)C)C(=O)NOC(=O)c1c(C)cccc1C` [Compound 16, N-(N-benzoyl-L-valyl-L-alanyl-L-norleucyl)-O-2,6-dimethyl-benzoyl hydroxamate] the figure was 1.6 × 10^4 M^- s^-1; with `CCOC(=O)/C=C/[C@H](CC(C)C)NC(=O)[C@H](C)NC(=O)[C@@H](NC(=O)Nc1ccccc1)C(C)C` [Compound 29], 4.6 × 10^3 M^- s^-1; with `CCCC[C@H](NC(=O)[C@H](C)NC(=O)[C@@H](NC(=O)c1ccccc1)C(C)C)C(=O)COC(=O)c1c(Cl)cccc1Cl` [Compound 6, N-Benzoyl-L-valyl-L-alanyl-L-norleucine 2,6-dichlorobenzoyloxymethyl ketone], 6.8 × 10^7 M^- s^-1.
`CCOC(=O)/C=C/[C@H](CC(C)C)NC(=O)[C@H](C)NC(=O)[C@@H](NC(=O)N(c1ccccc1)c1ccccc1)C(C)C` [Compound 30]: the “kobs /[I]” value was 7.5 × 10^3 M^- s^-1.
Turning to `CCCC[C@H](NC(=O)[C@H](C)NC(=O)[C@@H](NC(=O)c1ccccc1)C(C)C)C(=O)COC(=O)[C@@H](CO)NC(=O)OCc1ccccc1` [Compound 11, N-Benzoyl-L-valyl-L-alanyl-L-norleucine N(-benzyloxycarbonyl)-D-serinyloxy methyl ketone], the “kobs /[I]” value is 1.2 × 10^6 M^- s^-1.
As to `CCOC(=O)/C=C/[C@H](CC(C)C)NC(=O)[C@H](C)NC(=O)[C@@H](NC(=O)OC(C)(C)C)C(C)C` [Compound 23], the “kobs /[I]” value was 1.7 × 10^3 M^- s^-1.
The same measure, in the same setting: with “N-Benzoyl-L-valyl-L-alanyl-L-norleucine 2-furanoxy methyl ketone [Compound 12]” the figure was 1.9 × 10^5 M^- s^-1; with `CCOC(=O)/C=C/[C@H](CC(C)C)NC(=O)[C@H](C)NC(=O)[C@@H](NC(=O)C1c2ccccc2Oc2ccccc21)C(C)C` [Compound 34], 1.1 × 10^4 M^- s^-1; with `CCCC[C@H](NC(=O)[C@H](C)NC(=O)[C@@H](NC(=O)c1ccccc1)C(C)C)C(=O)COC(=O)c1ccccc1` [Compound 7, N-Benzoyl-L-valyl-L-alanyl-L-norleucine benzoyloxymethyl ketone], 3.7 × 10^5 M^- s^-1.
As to `CC(C)C[C@@H](/C=C/C(=O)OCC(F)(F)F)NC(=O)[C@H](C)NC(=O)[C@@H](NC(=O)OC(C)(C)C)C(C)C` [Compound 25], the “kobs /[I]” value is given as 3.1 × 10^3 M^- s^-1.
On the same count and under the same terms, with `CCOC(=O)/C=C/[C@H](CC(C)C)NC(=O)[C@H](C)NC(=O)[C@@H](NC(=O)c1ccc2c(c1)OCO2)C(C)C` [Compound 28] the figure was 6.8 × 10^3 M^- s^-1; with `CCCC[C@H](NC(=O)[C@H](C)NC(=O)[C@@H](NC(=O)c1ccccc1)C(C)C)C(=O)COC(=O)c1c(F)c(F)c(F)c(F)c1F` [Compound 8, N-Benzoyl-L-valyl-L-alanyl-L-norleucine 2,3,4,5,6-pentafluoro benzoyloxy methyl ketone], > 10^7 M^- s^-1.

Still in this test, the particulars now being: second order inactivation rate constant; 50 mM potassium phosphate pH 8.25, 1 mM EDTA, 1 mM DTT, 25° C.; purified Der p I; read-out: kobs /[I].
For `CC(C)C[C@@H](/C=C/S(C)(=O)=O)NC(=O)[C@H](C)NC(=O)[C@@H](NNC(=O)OC(C)(C)C)C(C)C` [Compound 38, (S)-(E)-3-((tert-butoxycarbonylamino-L-valyl)-L-alanyl)amino-1-methylsulfonyl-5-methyl-1-hexene], the kinact/KI was determined as 1100 M⁻¹ s⁻¹.
For the compound `CC(C)C[C@@H](/C=C/S(=O)(=O)c1ccccc1)NC(=O)[C@H](C)NC(=O)[C@@H](NNC(=O)OC(C)(C)C)C(C)C` [Compound 36, (S)-(E)-3-((tert-butoxycarbonylamino-L-valyl)-L-alanyl)amino-1-phenylsulfonyl-5-methyl-1-hexene], the kinact/KI came out at 6400 M⁻¹ s⁻¹.
